Measurements from patent publication US8440643B2, “Inhibitors of beta-lactamase” (MethylGene Inc., priority 2006, dated 2013).

Tested on: Ps. aeruginosa, CL 5701
Test: Imipenem MIC against Ps. aeruginosa CL 5701
Format: cell-based
Conditions: Pseudomonas aeruginosa, CL5701, imipenem alone
Description: The assay determines the concentration of a β-lactamase inhibitor required to reduce the MIC of a β-lactam antibiotic by one-half, one-quarter, one-eighth, one-sixteenth and one-thirty-second against strains of bacteria normally resistant to the antibiotic in question. This is accomplished by titrating the inhibitor (BLI=beta-lactamase inhibitor) in a serial dilution across a microtiter plate while at the same time titrating the antibiotic (AB) in a serial dilution down the microtiter plate and then inoculating the plate with the bacterial strain in question and allowing the bacteria to grow up overnight. Each well in this microplate checkerboard contains a different combination of concentrations of the inhibitor and the antibiotic allowing a full determination of any synergy between the two.
• 1. All wells in rows B-H of MIC 2000 microtiter plates are filled with 100 μL of MHBII+1% DMSO (dimethyl sulfoxide). • 2. All wells in row A of MIC 2000 microtiter plates are filled with 100 μL of 2×MHBII+2% DMSO. • 3. […] Plates are left at 37° C. for about 20 hours and scored for growth by eye. […]
Plates are scored for growth in each well. End points (MICs) where there is no growth in each row are determined and the concentrations of AB and the test BLI at each of these growth negative wells are then used to determine levels of synergy. […]

MIC: 20 µg/mL
Compound: C[C@@H](O)[C@H]1C(=O)N2C(C(=O)O)=C(SCCN=CN)C[C@H]12 [Imipenem]
